What was measured:
Type in all cases: functional
Mus musculus [1] = assay: Anxiolytic activity in ip dosed male albino CF-1 mouse assessed as decrease in traction reflex
Mus musculus [2] = assay: Anxiolytic activity in ip dosed male albino CF-1 mouse assessed as decrease in dish reflex
Mus musculus [3] = assay: Anxiolytic activity in ip dosed male albino CF-1 mouse assessed as inhibition of nicotine-induced tonic extensor convulsions
Mus musculus [4] = assay: Anxiolytic activity in ip dosed male albino CF-1 mouse assessed as inhibition of nicotine-induced death
Mus musculus [5] = assay: Anxiolytic activity in ip dosed male albino CF-1 mouse assessed as inhibition of pentylenetetrazole-induced clonic convulsions; settings: CF-1, ip
Mus musculus [6] = assay: Anxiolytic activity in ip dosed male albino CF-1 mouse assessed as inhibition of thiosemicarbazide -induced lethality; settings: CF-1, ip
Mus musculus [7] = assay: Anxiolytic activity in ip dosed male albino CF-1 mouse assessed as inhibition of strychnine-induced lethality; settings: CF-1, ip
Mus musculus [8] = assay: Potentiation of ethanol-induced anxiolytic activity in ip dosed male albino CF-1 mouse; settings: CF-1, ip
Mus musculus [9] = assay: Anxiolytic activity in ip dosed male albino CF-1 mouse assessed as inhibition of electroshock-induced convulsions; settings: CF-1, ip
[10] = Mus musculus, CF-1, ip, read-out: ED50

Structure (SMILES) | ED50 (Mus musculus [1]; [10]) [mg/kg] | ED50 (Mus musculus [2]; [10]) [mg/kg] | ED50 (Mus musculus [3]; [10]) [mg/kg] | ED50 (Mus musculus [4]; [10]) [mg/kg] | ED50 (Mus musculus [5]) [mg/kg] | ED50 (Mus musculus [6]) [mg/kg] | ED50 (Mus musculus [7]) [mg/kg] | ED50 (Mus musculus [8]) [mg/kg] | ED50 (Mus musculus [9]) [mg/kg] | ED50 (Mus musculus [1]) [mg/kg] | ED50 (Mus musculus [2]) [mg/kg] | ED50 (Mus musculus [3]) [mg/kg] | ED50 (Mus musculus [4]) [mg/kg]
CCN(CC)CC(=O)Nc1ccc(Cl)cc1C(=O)c1ccccc1 | > 200 | 100 | 23 | 28 | 140 | – | – | – | – | – | – | – | –
Cc1nnc(CN(C)C)n1-c1ccc(Cl)cc1C(=O)c1ccccc1Cl | 3.2 | 0.25 | 0.14 | 0.14 | 0.28 | 0.02 | 11 | 0.63 | 50 | – | – | – | –
CN(C)Cc1nnc(-c2ccncc2)n1-c1ccc(Cl)cc1C(=O)c1ccccc1Cl | > 100 | 20 | 11 | 11 | – | 4.4 | > 50 | – | > 100 | – | – | – | –
Cc1nnc(CN(C)C)n1-c1ccccc1C(=O)c1ccccc1Cl | > 100 | 22 | 5 | 5 | 7 | 3.6 | > 50 | > 100 | > 100 | – | – | – | –
Cc1nnc(CN(C)C)n1-c1ccc(Cl)cc1C(=O)c1ccccc1 | 5 | 2.2 | 0.5 | 0.5 | 1.1 | 0.3 | 5 | 1.1 | 45 | – | – | – | –
Cc1nnc(CN2CCCC2)n1-c1ccc(Cl)cc1C(=O)c1ccccc1 | 4 | 1.3 | 0.4 | 0.4 | 2 | 2 | 4 | 1.8 | 89 | – | – | – | –
Cc1nnc(CN2CCCC2)n1-c1ccc(Cl)cc1C(=O)c1ccccc1Cl | 18 | 1 | 1.3 | 1.8 | 4 | 1.1 | 1 | 6 | > 100 | – | – | – | –
Cc1nnc(CN2CCCC2)n1-c1ccc(Cl)cc1Cc1ccccc1 | > 100 | 40 | 36 | 36 | > 100 | – | – | – | – | – | – | – | –
Cc1nnc(CN2CCOCC2)n1-c1ccc(Cl)cc1C(=O)c1ccccc1 | 5 | 1.8 | 0.45 | 0.5 | 1.8 | 0.8 | 6.3 | 4.4 | > 50 | – | – | – | –
CNCc1nnc(C)n1-c1ccc(Cl)cc1C(=O)c1ccccc1 | 2.5 | 0.8 | 0.1 | 0.1 | 1.1 | 0.3 | 3.2 | 2 | 63 | – | – | – | –
CCNCc1nnc(C)n1-c1ccc(Cl)cc1C(=O)c1ccccc1 | 2.5 | 1 | 0.2 | 0.2 | 0.5 | 0.6 | 45 | 0.6 | 45 | – | – | – | –
CN(C)Cc1nnc(C2CC2)n1-c1ccc(Cl)cc1C(=O)c1ccccc1Cl | 7.1 | 1.1 | 0.6 | 0.6 | 1 | 0.4 | 5 | 2.2 | 79 | – | – | – | –
CN(C)Cc1nnc(-c2ccco2)n1-c1ccc(Cl)cc1C(=O)c1ccccc1 | 71 | 28 | 16 | 16 | 23 | 8 | 45 | 25 | > 100 | – | – | – | –
Cc1nnc(CN)n1-c1ccc(Cl)cc1C(O)c1ccccc1 (stereo not given) | 9 | 2.8 | 1.6 | 1.6 | 4 | 1.2 | 28 | 3.1 | 71 | – | – | – | –
CN(C)Cc1nccn1-c1ccc(Cl)cc1C(=O)c1ccccc1Cl | 11 | 2.2 | 1 | 1.2 | 1.8 | 1.1 | > 50 | 2.5 | – | – | – | – | –
Cc1nc(CN(C)C)n(-c2ccc(Cl)cc2C(=O)c2ccccc2Cl)c1CO | 18 | 3.5 | 1 | 1 | 1.8 | 2 | > 25 | 18 | 100 | – | – | – | –
CN(C)Cc1nn(CO)c(=O)n1-c1ccc(Cl)cc1C(=O)c1ccccc1Cl | 6.3 | 1 | 0.13 | 0.13 | 0.32 | 0.23 | 12.5 | 2 | > 100 | – | – | – | –
CNCc1nn(C)c(=O)n1-c1ccc(Cl)cc1C(=O)c1ccccc1.Cl | 12.5 | 4 | 0.45 | 0.56 | 5.6 | – | – | – | – | – | – | – | –
CN(C)CCn1nc(CN(C)C)n(-c2ccc(Cl)cc2C(=O)c2ccccc2)c1=O | 100 | 28 | 6.3 | 6.3 | 18 | 9 | > 100 | 80 | > 100 | – | – | – | –
NCC(=O)Nc1ccc(Cl)cc1C(=O)c1ccccc1 | 32 | 5.6 | 0.25 | 0.25 | – | 1.6 | 22 | 2.5 | 29 | – | – | – | –
Cc1nnc(CN2CCCC2)n1-c1ccc(Cl)cc1C(O)c1ccccc1 (stereo in doubt; 20) | – | – | – | – | – | – | – | – | – | >25 | 16 | 8 | 8
Cc1nnc(CN2CCCC2)n1-c1ccc(Cl)cc1C(O)c1ccccc1 (stereo in doubt; 21) | – | – | – | – | 14 | – | – | – | – | >200 | 5 | 32 | 32
Cc1nnc2n1-c1ccc(Cl)cc1C(c1ccccc1)=NC2 [ALPRAZOLAM] | 0.6 | 0.056 | 0.02 | 0.02 | 0.2 | 0.16 | 0.3 | 0.16 | 25.5 | – | – | – | –
CN1C(=O)CN=C(c2ccccc2)c2cc(Cl)ccc21 [DIAZEPAM] | 5 | 0.31 | 0.11 | 0.11 | 0.8 | 0.2 | 3.6 | 1 | 20 | – | – | – | –
Cc1nnc2n1-c1ccc(Cl)cc1C(c1ccccc1Cl)=NC2 [TRIAZOLAM] | 0.6 | 0.028 | 0.013 | 0.014 | 0.03 | 0.028 | 0.23 | 0.63 | 32 | – | – | – | –

Reference: ChEMBL document CHEMBL3272213, “Synthesis and pharmacology of novel anxiolytic agents derived from 2-[(dialkylamino)methyl-4H-triazol-4-yl] benzophenones and related heterocyclic benzophenones” (1976)
